Data published in US8871681B2, “Herbicidal compositions comprising 4-amino-3-chloro-5-fluoro-6-(4-chloro-2-fluoro-3-methoxyphenyl) pyridine-2-carboxylic acid or a derivative thereof and certain sulfonylureas” (Dow AgroSciences LLC, priority 2012, dated 2014).
Where “and” joins values, the source holds several entries; their conditions need not be identical. Identical values can stand only once. Like-named read-outs stand apart in the source and are kept apart here.

How the values were obtained:
Assay in all cases: Postemergence foliar-applied weed control, direct seeded rice, greenhouse (Example I)
[1] = system: CYPIR (Cyperus iria, rice flatsedge); format: in vivo, Cyperus iria L.
Outline: (§1)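 Greenhouse-grown plants (14 h photoperiod, 29/26 °C day/night) at first to fourth true leaf stage sprayed overhead at 187 L/ha with Compound A (acid equivalent basis) alone or mixed with sulfonylurea ALS inhibitors (active ingredient basis). Final spray contained 1.25% v/v crop oil concentrate; controls received solvent blank.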

[2] = system: IPOHE (Ipomoea hederacea, ivyleaf morningglory); format: in vivo, Ipomoea hederacea Jacq.; details: for Visual Weed Control Obs: 22 DAA
Outline: as §1

[3] = system: BRAPP (Brachiaria platyphylla, broadleaf signalgrass); format: in vivo, Brachiaria platyphylla (Griseb.) Nash; details: Urochloa platyphylla, post-emergence; for pest or weed control at 4.38 g/ha: 4.38 gae/ha; for pest or weed control at 8.75 g/ha: 8.75 gae/ha; for pest or weed control at 17.5 g/ha: 17.5 gae/ha
Outline: as §1

[4] = system: LEFCH (Leptochloa chinensis, Chinese sprangletop); format: in vivo, Leptochloa chinensis (L.) Nees; details: for pest or weed control at 8.75 g/ha: 8.75 gae/ha; for pest or weed control at 17.5 g/ha: 17.5 gae/ha
Outline: as §1

[5] = system: ECHCG (Echinochloa crusgalli, barnyardgrass); format: in vivo, Echinochloa crusgalli (L.) Beauv.; details: 21 DAA; 4.38 gae/ha
Description: Seeds or nutlets of the desired test plant species were planted in a soil matrix prepared by mixing a loam or sandy loam soil (e.g., 28.6 percent silt, 18.8 percent clay, and 52.6 percent sand, with a pH of about 5.8 and an organic matter content of about 1.8 percent) and calcareous grit in an 80 to 20 ratio. The soil matrix was contained in plastic pots with a volume of 1 quart and a surface area of 83.6 square centimeters (cm^2). When required to ensure good germination and healthy plants, a fungicide treatment and/or other chemical or physical treatment was applied. The plants were grown for 8-22 days in a greenhouse with an approximate 14 h photoperiod which was maintained at about 29° C. during the day and 26° C. during the night. Nutrients (Peters Excel® 15-5-15 5-Ca 2-Mg and iron chelate) were applied in the irrigation solution as needed and water was added on a regular basis. Supplemental lighting was provided with overhead metal halide 1000-Watt lamps as necessary. The plants were employed for testing when they reached the first through fourth true leaf stage.
Treatments consisted of the acid or esters of 4-amino-3-chloro-5-fluoro-6-(4-chloro-2-fluoro-3-methoxy-phenyl)pyridine-2-carboxylic acid (Compound A), each formulated as an SC, and various herbicidal components alone and in combination. Forms of compound A were applied on an acid equivalent basis.
Other herbicidal components were applied on an active ingredient basis and included acetolactate synthase (ALS)-inhibiting herbicides (sulfonylurea chemical class) azimsulfuron formulated as Gulliver®, bensulfuron-methyl formulated as Londax® 60DF, cyclosulfamuron (technical material), ethoxysulfuron formulated as Sunrice® 15 WDG, flazasulfuron formulated as Katana®, flucetosulfuron formulated as Sukedachi® 1KG G, foramsulfuron formulated as Option®, imazosulfuron formulated as Brazzos® WG, iodosulfuron-methyl-sodium formulated as Hussar®, metsulfuron-methyl formulated as Lorate®, nicosulfuron formulated as Accent®, orthosulfamuron formulated as Strada® WG, primisulfuron-methyl (technical material), propyrisulfuron formulated as Zeta One®, rimsulfuron formulated as Matrix® WG, sulfometuron-methyl formulated as Oust®, and trifloxysulfuron-sodium formulated as Monument® 75WG.
Treatment requirements were calculated based upon the rates being tested, the concentration of active ingredient or acid equivalent in the formulation, and a 12 mL application volume at a rate of 187 L/ha.
For treatments comprised of formulated compounds, measured amounts of compounds were placed individually in 25 mL glass vials and diluted in a volume of 1.25% (v/v) Agri-Dex® crop oil concentrated to obtain 12× stock solutions. […] Application solutions were prepared by adding an appropriate amount of each stock solution (e.g., 1 mL) and diluted to the appropriate final concentrations with the addition of 10 mL of an aqueous mixture of 1.25% (v/v) crop oil concentrate so that the final spray solutions contained 1.25+/−0.05% (v/v) Agrcrop oil concentrate.
For treatments comprised of formulated and technical compounds, weighed amounts of the technical materials were placed individually in 25 mL glass vials and dissolved in a volume of 97:3 v/v acetone/DMSO to obtain 12× stock solutions, and measured amounts of the formulated compounds were placed individually in 25 mL glass vials and diluted in a volume of 1.25% (v/v) crop oil concentrate to obtain 12× stock solutions. […] Application solutions were prepared by adding an appropriate amount of each stock solution (e.g., 1 mL) and diluted to the appropriate final concentrations with the addition of an appropriate amount of an aqueous mixture of 1.5% (v/v) crop oil concentrate so that the final spray solutions contained 1.25% (v/v) crop oil concentrate. […]

[6] = 480 h, read-out: Visual Weed Control (%) Obs, 20 DAA
[7] = 504 h, read-out: Visual Weed Control (%) Obs, 21 DAA
[8] = 504 h, read-out: Visual Weed Control (%) Obs, 21 DAA, second series
[9] = Dinebra chinensis, post-emergence, 480 h, read-out: Visual Weed Control (%) Obs, 20 DAA
[10] = Dinebra chinensis, post-emergence, 576 h, read-out: Visual Weed Control (%) Obs, 24 DAA

SMILES: COc1c(Cl)ccc(-c2nc(C(=O)OCc3ccccc3)c(Cl)c(N)c2F)c1F [Compound A Benzyl Ester]
- Visual Weed Control (%) Obs ([1]; 20 DAA, 4.38 gae/ha): 15%
- Visual Weed Control (%) Obs ([1]; 20 DAA, 8.75 gae/ha): 60%
- Visual Weed Control (%) Obs ([1]; 20 DAA, 17.5 gae/ha): 90%
- Visual Weed Control (%) Obs ([1]; 21 DAA, 4.38 gae/ha): 50%
- Visual Weed Control (%) Obs ([1]; 22 DAA, 16 gae/ha): 60% and 80%
- Visual Weed Control (%) Obs ([2]; 20 DAA, 4.38 gae/ha): 10%
- Visual Weed Control (%) Obs ([2]; 20 DAA, 8.75 gae/ha): 10%
- Visual Weed Control (%) Obs ([2]; 20 DAA, 17.5 gae/ha): 25%
- Visual Weed Control (%) Obs ([2]; 21 DAA, 4.38 gae/ha): 0%
- Visual Weed Control (%) Obs ([2]; 21 DAA, 8 gae/ha): 10%
- Visual Weed Control (%) Obs ([2]; 21 DAA, 8.75 gae/ha): 10%
- Visual Weed Control (%) Obs ([2]; 21 DAA, 16 gae/ha): 10%
- Visual Weed Control (%) Obs ([2]; 21 DAA, 17.5 gae/ha): 30%
- Visual Weed Control (%) Obs ([2]; 21 DAA, 32 gae/ha): 45%
- Visual Weed Control Obs ([2]; 8 gae/ha): 10%
- Visual Weed Control Obs ([2]; 16 gae/ha): 10%
- Visual Weed Control Obs ([2]; 32 gae/ha): 35%
- pest or weed control at 4.38 g/ha [3, 6]: 60%
- pest or weed control at 8.75 g/ha [3, 6]: 75%
- pest or weed control at 17.5 g/ha [3, 6]: 85%
- pest or weed control at 4.38 g/ha [3, 7]: 50%
- pest or weed control at 4.38 g/ha [3, 8]: 50%
- pest or weed control at 8.75 g/ha [3, 7]: 70%
- pest or weed control at 8.75 g/ha [3, 8]: 80%
- pest or weed control at 17.5 g/ha [3, 7]: 80%
- pest or weed control at 8 g/ha ([3]; 528 h, read-out: Visual Weed Control (%) Obs, 22 DAA, 8 gae/ha): 50%
- pest or weed control at 16 g/ha ([3]; 528 h, read-out: Visual Weed Control (%) Obs, 22 DAA, 16 gae/ha): 90%
- pest or weed control at 32 g/ha ([3]; 528 h, read-out: Visual Weed Control (%) Obs, 22 DAA, 32 gae/ha): 85%
- Visual Weed Control Obs ([4]; 22 DAA, 8 gae/ha): 0%
- pest or weed control at 8.75 g/ha [4, 9]: 20%
- pest or weed control at 17.5 g/ha [4, 9]: 40%
- pest or weed control at 4.38 g/ha ([4]; Dinebra chinensis, post-emergence, 504 h, read-out: Visual Weed Control (%) Obs, 21 DAA, 4.38 gae/ha): 0%
- pest or weed control at 8 g/ha ([4]; Dinebra chinensis, post-emergence, 504 h, read-out: Visual Weed Control (%) Obs, 21 DAA, 8 gae/ha): 20%
- pest or weed control at 8 g/ha ([4]; Dinebra chinensis, post-emergence, 528 h, read-out: Visual Weed Control (%) Obs, 22 DAA, 8 gae/ha): 0%
- pest or weed control at 16 g/ha ([4]; Dinebra chinensis, post-emergence, 528 h, read-out: Visual Weed Control (%) Obs, 22 DAA, 16 gae/ha): 20%
- pest or weed control at 32 g/ha ([4]; Dinebra chinensis, post-emergence, 528 h, read-out: Visual Weed Control (%) Obs, 22 DAA, 32 gae/ha): 15%
- pest or weed control at 8.75 g/ha [4, 10]: 0%
- pest or weed control at 17.5 g/ha [4, 10]: 10%
- Visual Weed Control (%) Obs [5]: 10%
